Source: patent US8110596B2, “Triprenyl phenol compound, process for production of triprenyl phenol compound, and thrombolysis enhancer” (Tokyo University of Agriculture and Technology TLO Co., Ltd., priority 2006, dated 2012)

Legend:
[1] = biological target: T1, plasminogen (Homo sapiens, UniProt P00747); test: Measurement of plasminogen activation by urokinase catalysis, VLK-pNA hydrolysis (Example 5); type: biochemical; conditions: 50 μM, 100 μM and 200 μM, 37° C., 60 minutes
Procedure: (§1) The fibrinolysis enhancing activity of SMTP-0 (50 μM, 100 μM and 200 μM) obtained in Example 2 was evaluated as follows, as the activity for promoting the plasminogen activation by urokinase catalysis.
(§2) A 30 mM solution of SMTP (DMSO solution) was diluted with TBS/T (50 mM Tris-HCl, 100 mM NaCl and 0.01% Tween80, pH 7.4) to prepare a 1.5 mM solution (in 5% DMSO·TBS/T). This solution was diluted with 5% DMSO in TBS/T to prepare SMTP solutions at the concentrations mentioned above.
(2) Measurement of Plasminogen Activation
10 μl of an SMTP solution (10 μl) was mixed with 40 μl of a reaction liquid at a 1.25-fold concentration (0.0625 μM of plasminogen, 62.5 U/ml of urokinase, and 0.125 mM of VLK-pNA) in a 96-well microplate, and measurement was made by immediately monitoring the absorption of the hydrolysis of VLK-pNA at 405 nm over time with a microplate reader. The measurement was performed at 37° C. for 60 minutes at an interval of 2 minutes.

[2] = biological target: T1, plasminogen; test: Measurement of activity of plasminogen fragment production (Example 5); type: biochemical; conditions: 50 μM, 100 μM and 200 μM; 60 minutes at 37° C., SDS polyacrylamide gel electrophoresis
Procedure: as §1, §2
(1) Measurement of Activity of Plasminogen Fragment Production
An SMTP solution (60 μl) was mixed with 240 μl of a reaction liquid at a 1.25-fold concentration (not containing VLK-pNA (Val-Leu-Lys-p-nitroanilide)), and the mixture was allowed to react for 60 minutes at 37° C. Then, 75 μl of 50% trichloroacetic acid (TCA) was added to terminate the reaction, and the mixture was left to stand in ice for 60 minutes. TCA-insoluble materials were precipitated by centrifugation, and the precipitate was washed two times with acetone. The obtained precipitate was dried, and then dissolved with 11 μl of added SDS sample buffer (0.125 M Tris-Cl, pH 6.8, 4% SDS, 20% glycerol and 0.02% bromophenol blue). 10 μl of the solution was used to perform SDS polyacrylamide gel electrophoresis (10% gel).

T1 sequence (P00747 20-810 limits assumed, species assumed): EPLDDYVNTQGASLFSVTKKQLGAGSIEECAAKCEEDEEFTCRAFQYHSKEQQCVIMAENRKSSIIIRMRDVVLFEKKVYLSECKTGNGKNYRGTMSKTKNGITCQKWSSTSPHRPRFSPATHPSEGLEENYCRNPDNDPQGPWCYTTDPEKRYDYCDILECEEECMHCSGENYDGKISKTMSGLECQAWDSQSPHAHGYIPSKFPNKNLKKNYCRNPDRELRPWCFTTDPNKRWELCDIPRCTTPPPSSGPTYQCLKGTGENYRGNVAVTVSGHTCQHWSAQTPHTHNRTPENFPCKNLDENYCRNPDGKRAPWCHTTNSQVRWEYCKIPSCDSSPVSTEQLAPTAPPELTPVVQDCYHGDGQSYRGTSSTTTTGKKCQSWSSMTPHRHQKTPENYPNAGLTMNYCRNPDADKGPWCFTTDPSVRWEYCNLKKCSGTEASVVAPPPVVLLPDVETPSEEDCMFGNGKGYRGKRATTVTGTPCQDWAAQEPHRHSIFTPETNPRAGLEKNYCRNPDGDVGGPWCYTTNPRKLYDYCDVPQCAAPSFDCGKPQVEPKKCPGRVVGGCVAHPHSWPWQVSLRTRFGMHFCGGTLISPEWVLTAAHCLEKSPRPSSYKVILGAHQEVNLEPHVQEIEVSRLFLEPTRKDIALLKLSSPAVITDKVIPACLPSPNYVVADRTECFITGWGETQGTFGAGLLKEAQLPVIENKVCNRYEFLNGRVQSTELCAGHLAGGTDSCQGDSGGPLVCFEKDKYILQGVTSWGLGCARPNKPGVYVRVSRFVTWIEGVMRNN

action of enhancing the plasminogen activation [1]: did not indicate any action
action on the generation of plasminogen fragments having the angiogenesis inhibitory activity [2]: did not exhibit any action
SMILES: CC(C)=CCC/C(C)=C/CC[C@]1(C)Oc2c(c(O)cc3c2CNC3=O)C[C@@H]1O [SMTP-0]
